Data as given in patent publication US20250154089A1, “METHODS FOR PREPARING OXYRESVERATROL AND DERIVATIVES THEREOF” (Caliway Biopharmaceuticals Co., Ltd., priority 2023, published 2025).

Test system: melanin production induced by α-MSH
Experiment: Inhibition of melanin production induced by α-MSH
Type: cell-based
Settings: for Melanin content (%), Mean: α-MSH 0.1 μM 24 hours + TA treat 24 hours, 0.2% DMSO, α-MSH group = 100.0
Excerpt: This example explores the bioactivity of the synthesized oxyresveratrol compound in inhibiting melanin production as relative to commercial oxyresveratrol extracted from plant sources.

SMILES	Inhibition of melanin production induced by α-MSH (in words) (32 and 128 μM)	Melanin content (%), Mean (TA conc. 32 μM)	Melanin content (%), Mean (TA conc. 128 μM)	Inhibitory activity on melanin production compared with the commercial material (in words) (e.g., at 128 μM)
Oc1cc(O)cc(/C=C/c2ccc(O)cc2O)c1 [Commercial, oxyresveratrol]	inhibited melanin production	77.4%	45.5%	–
Oc1cc(O)cc(/C=C/c2ccc(O)cc2O)c1 [Synthetic, oxyresveratrol]	–	75.7%	38.5%	greater inhibitory activity
